Assay results taken from US8415480B2, “Thiazolidine carboxamide derivatives as modulators of the prostaglandin F receptor” (Merck Serono SA, priority 2002, dated 2013).

Key:
[1] = target: T1, human Prostaglandin F2α receptor (Homo sapiens, UniProt P43088); assay: In vitro competition binding assay on human Prostaglandin F2α receptor (Scintillation Proximity Assay, 3H PGF2-alpha radioligand); details: scintillation proximity competition binding assay against Prostaglandin F2α as radioligand; read-out: Binding affinity for human Prostaglandin F2α receptor Ki
T1 construct: Human Prostaglandin F2α receptor (full-length cDNA) was subcloned into the pCEP4; expressed in transfected cells; host or cells: HEK 293 EBNA cells (membrane preparation)
Excerpt: The compounds of formula (II), were be subjected to the following in vitro and in vivo biological assays: • 1) In vitro competition binding assay on human Prostaglandin F2α receptor using a Scintillating Proximity Assay (SPA)
This assay allows to determine the binding affinity of the test compounds of formula (I) for the human Prostaglandin F2α receptor: […]
Human Prostaglandin F2α receptor (full-length cDNA) was subcloned into the pCEP4 (Invitrogen) vector and transfected together with the hygromycin resistance gene into HEK 293 EBNA cells by Calcium-phosphate co-precipitation method. Antibiotic resistant cells were grown under constant selection pressure in DMEM/F-12 medium supplemented with 2% fetal calf serum, 4 mM L-Glutamine and 8 ml/l Insulin-Transferrin-Selenium-mix (all Invitrogen) and 300 μg/ml hygromycin at 37° C. in a humidified atmosphere of 5% CO2 in air. At 48 h before harvesting, receptor expression was enhanced by adding 5 mM of Na-butyrate. Cells were washed twice with phosphate buffer saline, harvested and pelleted by centrifugation.
Cell pellet was lysed by Dounce homogenisation in 250 mM sucrose, 25 mM Tris-HCl pH 7.5, 10 mM MgCl2, 1 mM EDTA containing proteases inhibitors according to the manufacturer (Boehringer Mannheim) at 4° C. The lysate was centrifuged at 1000 g, 4° C. for 10 min and the supernatant was centrifuged at 160000 g, 4° C. for 60 min. The membranes pellets were resuspended in binding buffer (10 mM MES pH 6.2, 10 mM MgCl2, 1 mM EDTA containing proteases inhibitors), frozen in dry ice ethanol and stored at −80° C.
In vitro competition binding with Scintillation proximity assay (SPA) was performed in Corning NBS 96 wells plates. Briefly, 100 μl of binding buffer containing 15 to 30 μg of purified membranes, 4 mg/ml of wheat-germ agglutinin (WGA) SPA beads and 1 to 2 nM of ^3H PGF2-alpha (determined by Scatchard analysis) in 1% DMSO was incubated for 2 hours at room temperature. Non-specific binding was determined in the presence of 1 μM of non-radioactive Prostaglandin F2α. The concentrations of compounds (antagonist) used to compete with the radioactive ligand (agonist) were 10 μM, 3 μM, 1 μM, 300 nM, 100 nM, 30 nM, 10 nM, 1 nM, 100 pM, 10 pM. The radioactivity was counted on a Microbeta plate counter and the binding data were analysed using the iterative, non-linear, curve-fitting program, “Prism” (GraphPad Software, Inc).

[2] = target: T1, human Prostaglandin F2α receptor; assay: Inhibition of Prostaglandin F2α induced Ca2+-mobilization in HEK/EBNA cells expressing the Prostaglandin F2α receptor (FLIPR); format: cell-based; details: HEK EBNA cells expressing the human Prostaglandin F2α receptor, 2 times the EC50 of Prostaglandin F2α
Experimental: • 3) In vitro functional assay 2: Inhibition of Prostaglandin F2α induced Ca^2′-mobilization in HEK/EBNA-cells expressing the Prostaglandin F2α receptor, as measured by FLIPR® (Fluorimetric Imaging Plate Reader).
HEK EBNA cells were seeded at 60000 cells/well in a Poly-L-Lysine precoated black/white bottom 96 well plate. […] Calcium mobilization was then measured on the FLIPR for 4 min. […] After the wash with FLIPR buffer, increasing concentrations of test compounds were added to the cells in FLIPR buffer and calcium mobilization was measured for 1 min.

[3] = target: T1, human Prostaglandin F2α receptor; assay: Inhibition of Prostaglandin F2α induced IP3 synthesis in HEK/EBNA cells expressing the Prostaglandin F2α receptor; format: cell-based; details: HEK EBNA cells expressing the human Prostaglandin F2α receptor; 30 nM PGF2α
Experimental: • 2) In vitro functional assay 1: Inhibition of Prostaglandin F2α induced IP3 (Inositol Triphosphate) Synthesis in HEK/EBNA-cells expressing the Prostaglandin F2α receptor
Cells were transfected by the calcium phosphate precipitation method with the appropriate plasmid and selected for hygromycinB resistance. The surviving colonies were assayed for their ability to retain specific [^3H] PGF2α binding. Selected clones were maintained in DMEM-F12 medium supplemented with 4 mM L-glutamine, 300 μg/ml hygromycinB and 2% fetal bovine serum (10% for cells expressing rFP).
Cells were detached with PBS/EDTA, washed with inositol-free DMEM-F12 medium and seeded at 80000 cells/well in a Poly-L-Lysine precoated 12 well plate. Cells were labelled with myo-[^3H] Inositol at 4 μCi/ml in inositol-free DMEM-F12 supplemented with 1% fetal bovine serum, 4 mM L-glutamine and 300 μg/ml hygromycinB. After 24 hours (rFP expressing cells) or 40 hours (hFP expressing cells), the medium was removed and cells were pre-incubated for 10 min in assay buffer (DMEM-F12 without Inositol, 20 mM Hepes, 0.1% BSA) containing 20 mM LiCl at 37° C. For agonist dose response, cells were then stimulated for 1 hour at room temperature with increasing concentration of PGF2α, in assay buffer. […] For agonist activity determination of the test compounds themselves, the test compounds were added to the cells at 10 μM and 1 μM for 1 hour at room temperature.
800 μl were then transferred to 400 μl of neutralizing solution (0.72N KOH, 0.6 M KHCO3), vortexed, and sedimented for at least 2 hours at 4° C. After centrifugation of 15 min. at 2500 g, 1 ml of the supernatant was loaded on a chromatography column, followed by two washes with 10 ml of water. The IP3 to be quantified were eluted with 3 ml elution buffer (1M ammonium formate, 0.1 M formic acid) and radioactivity was counted on a Beckman LS6000TA scintillation counter to measure the amount of phosphorylated [^3H] inositol.

[4] = system: uterine contractions in non-pregnant Sprague Dawley female rats; assay: PGF2α or fluprostenol-induced uterine contractions in non-pregnant rats; format: in vivo, rat; details: 40 minutes after administration by i.v. route, cumulative dose of 30 mg/kg
Experimental: a) PGF2α or fluprostenol-induced uterine contractions in non-pregnant rats
Non-pregnant Sprague Dawley female rats (Charles River, Calco, Italy) weighing 200-300 g were used. They received an i.p. injection of 250 μg/kg diethylstilbestrol (DES) 18 and 24 hours before the experiment. On the day of the experiment, they were anaesthetized with urethane (1.05 g/kg, i.p.) and placed on a homeothermic operating table. The trachea was then isolated and cannulated with a suitable polyethylene (PE) tubing. A midline incision at the hypogastrium level was made, one uterine horn exposed and its tubal end closed (near the ovary) by a ligature with surgical silk. About 3 cm posteriorly to the first tie, the uterine horn wall was incited (close to the uterus body) and a PE240 tubing was inserted into the lumen and secured with surgical silk. After filling the internal cavity with 0.2 ml of sterile physiological saline solution, the catheter was connected to an amplifying/recording system (MacLab, ADInstruments Pty Ltd, Castle Hill, Australia) via a P23ID Gould Statham pressure transducer. One jugular vein was then isolated and cannulated with a PE60 catheter connected to a butterfly needle for the intravenous administration of Prostaglandin F2α (Sigma Chem. co., St. Louis, Mo., USA) and (±)fluprostenol (Cayman Chemicals, Ann Arbor, Mich., USA) or test compounds. […]

[5] = system: spontaneous uterine contractions in late-term pregnant Sprague Dawley female rats; assay: Spontaneous uterine contractions in late-term pregnant rats; format: in vivo, rat
Excerpt: b) Spontaneous Uterine Contractions in Late-Term Pregnant Rats: • (i) Preparation of the Experiment:
Late-term pregnant (19-21 days of gestation) Sprague Dawley female rats (Charles River, Calco, Italy) weighing 350-400 g were anesthetized with urethane (1.05 g/kg, i.p.) and placed on a homeothermic operating table. The trachea was isolated and cannulated with a suitable polyethylene (PE) tubing. A midline incision at the hypogastrium level was made, one pregnant uterine horn exposed and its tubal end closed (near the ovary) by a ligature with surgical silk. In the correspondence of the last foetus near the above-mentioned ovary, the uterine horn wall was incited taking care not to injure the adjacent placenta, and a PE240 tubing with a latex balloon (9 mm length when empty, capacity 0.1 ml; Radnoti, Monrovia, Calif., USA) on the top was inserted into the lumen and secured with surgical silk. After filling the internal cavity of the latex balloon with 0.1 ml of sterile physiological saline solution, the catheter was connected to an amplifying/recording system (MacLab, ADInstruments Pty Ltd, Castle Hill, Australia) via a P23ID Gould Statham pressure transducer. […]
The spontaneous contractile response of the uterus was quantified by evaluating the area under the curve (AUC) of the changes in the intra-luminal uterine pressure over time (by Chart V4.04 for Windows software, PowerLab ADInstruments, Castle Hill, Australia). The effect of the test compound on the spontaneous uterine contraction was evaluated as the percent variation of the AUC calculated in a 10-min interval following the administration of each dose of test compound as compared to the AUC in a 10-min interval before the administration of the first dose of test compound (basal value). When possible, a dose-response curve (of peak effect) was plotted and the relative ED50 value calculated (by S-Plus 2000 v. 4.6 statistical software, Mathsoft, Inc. Seattle, Wash., USA).

T1 sequence (P43088 whole entry): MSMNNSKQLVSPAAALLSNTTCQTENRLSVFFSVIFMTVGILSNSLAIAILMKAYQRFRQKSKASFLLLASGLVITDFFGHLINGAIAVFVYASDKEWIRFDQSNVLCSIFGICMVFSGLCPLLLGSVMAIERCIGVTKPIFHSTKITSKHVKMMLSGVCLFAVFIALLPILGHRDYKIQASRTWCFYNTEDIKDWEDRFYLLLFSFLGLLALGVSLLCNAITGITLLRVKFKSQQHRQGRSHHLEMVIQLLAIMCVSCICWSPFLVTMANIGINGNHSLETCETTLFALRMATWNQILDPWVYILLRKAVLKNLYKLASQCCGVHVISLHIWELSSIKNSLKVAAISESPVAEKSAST

Structure (SMILES): O=C(NC(CCO)c1ccco1)C1SCCN1S(=O)(=O)c1ccc(-c2ccccc2)cc1 (centres unmarked) [3-([1,1′-biphenyl]-4-ylsulfonyl)-N-[1-(2-furyl)-3-hydroxypropyl]-1,3-thiazolidine-2-carboxamide]
- Ki [1]: 620 nM

Structure (SMILES): CN(CCO)CC[C@H](NC(=O)[C@@H]1SCCN1S(=O)(=O)c1ccc(-c2ccccc2)cc1)c1ccccc1 [Example 21, (2S)-3-([1,1′-biphenyl]-4-ylsulfonyl)-N-{(1S)-3-[(2-hydroxyethyl)(methyl)-amino]-1-phenylpropyl}-1,3-thiazolidine-2-carboxamide]
- IC50 [2]: 202 nM
- IC50 [3]: 225 nM

Structure (SMILES): O=C(NC(CCO)c1c(F)cccc1F)C1SCCN1S(=O)(=O)c1ccc(-c2ccccc2)cc1 (centres unmarked) [Example 14, 3-([1,1′-biphenyl]-4-ylsulfonyl)-N-[1-(2,6-difluorophenyl)-3-hydroxypropyl]-1,3-thiazolidine-2-carboxamide]
- Ki [1]: 50 nM

Structure (SMILES): O=C(N[C@H](c1ccccc1)c1ccccn1)[C@@H]1SCCN1S(=O)(=O)c1ccc(-c2ccccc2)cc1 [Example 62, (2S)-3-(1,1′-biphenyl-4-ylsulfonyl)-N—[(R)-phenyl(pyridin-2-yl)methyl]-1,3-thiazolidine-2-carboxamide]
- Ki [1]: 55 nM
- IC50 [2]: 20 nM
- IC50 [3]: 15 nM

Structure (SMILES): O=C(N[C@@H](CCO)c1ccccc1)[C@@H]1SCCN1S(=O)(=O)c1ccc(-c2ccccc2)cc1 [Example 1, (2S)-3-([1,1′-biphenyl]-4-ylsulfonyl)-N-[(1S)-3-hydroxy-1-phenylpropyl]-1,3-thiazolidine-2-carboxamide]
- inhibition of uterine contractions [4]: 26%
- Ki [1]: 65 nM
- IC50 [2]: 48 nM
- ED50 ([5]; Rattus norvegicus, iv, 10 min, i.v. infusion over 10 minutes, spontaneous uterine contractions, read-out: calculated ED50 value): 28 mg/kg
- calculated ED50 value ([5]; i.v. infusion over 10 minutes, spontaneous uterine contractions): 2.8 mg/kg/min
- inhibition of uterine contractions ([5]; i.v. route (infusion over 10 minutes), cumulative dose of 30 mg/kg): > 50%
- IC50 [3]: 185 nM

Structure (SMILES): CC(=O)NCCNCCC(NC(=O)C1SCCN1S(=O)(=O)c1ccc(-c2ccccc2)cc1)c1ccccc1 (centres unmarked) [N-(3-{[2-(acetylamino)ethyl]amino}-1-phenylpropyl)-3-([1,1′-biphenyl]-4-ylsulfonyl)-1,3-thiazolidine-2-carboxamide]
- Ki [1]: 1150 nM

Structure (SMILES): O=C(NC(CN1CCCC1)c1ccccc1)C1SCCN1S(=O)(=O)c1ccc(-c2ccccc2)cc1 (centres unmarked) [3-([1,1′-biphenyl]-4-ylsulfonyl)-N-[1-phenyl-2-(1-pyrrolidinyl)ethyl]-1,3-thiazolidine-2-carboxamide]
- Ki [1]: 170 nM

Structure (SMILES): CCC(C)(C)c1ccc(S(=O)(=O)N2CCS[C@H]2C(=O)N[C@@H](CCO)c2ccccc2)cc1 [Example 10, (2S)—N-[(1S)-3-hydroxy-1-phenylpropyl]-3-[(4-tert-pentylphenyl)sulfonyl]-1,3-thiazolidine-2-carboxamide]
- Ki [1]: 120 nM

Structure (SMILES): CN(CC[C@H](NC(=O)[C@@H]1SCCN1S(=O)(=O)c1ccc(-c2ccccc2)cc1)c1ccccc1)Cc1ccccc1 [Example 19]
- Ki [1]: 20 nM

Structure (SMILES): Cc1c(S(=O)(=O)N2CCSC2C(=O)N[C@@H](Cc2ccccc2)C(=O)O)sc2ccc(Cl)cc12 (stereo partly drawn) [(2S)-2-[({3-[(5-chloro-3-methyl-1-benzothien-2-yl)sulfonyl]-1,3-thiazolidine-2-yl}carbonyl)amino]-3-phenylpropanoic acid]
- Ki [1]: 330 nM

Structure (SMILES): O=C(NCCc1ccccc1)NCc1ccc(CNC(=O)C2SCCN2S(=O)(=O)c2ccc(-c3ccon3)s2)cc1 (centres unmarked) [3-{[5-(3-isoxazolyl)-2-thienyl]sulfonyl}-N-{4-[({[(2-phenylethyl)amino]carbonyl}amino)methyl]benzyl}-1,3-thiazolidine-2-carboxamide]
- Ki [1]: 1100 nM
